Results published in patent US20060147934A1, “High speed assay for glycosyl transferases” (priority 2003, published 2006).
Where two headings read alike, the source gives them in different places.

Experiments:
MraY/MurG couple = assay: Coupled assay of MraY and MurG using HP20ss beads; type: biochemical, E. coli; conditions: titration of the MraY/MurG couple, 0.5 mg/mL protein at 10 min time (FIG. 5, Panel B)
Description: The MraY/MurG coupled assay reaction procedure was identical to that described above for the assay of MraY. However, quantitation of the coupled system was performed by monitoring the incorporation of radiolabeled MurG co-substrate UDP-N-[1-^14C]acetyl-glucosamine into the lipophilic product Lipid II. Accordingly, this assay mixture was modified to contain 100 mM Tris, pH 7.5, 30 mM MgCl2, 0.15% Triton X-100, 40 μM decaprenol phosphate, 100 μM UDP-MurNAc-pentapeptide, 100 ug/ml phosphatidyl glycerol, and 20 μM, 0.1 μCi UDP-N-[1-^14C]acetyl-glucosamine and typically 0.5 mg/mL of E. coli cell membranes in a final volume of 50 μL. All other procedures, times and temperatures were identical to those described for the MraY assay.

MraY = target: T1, MraY (Escherichia coli, UniProt P0A6W3); assay: Assay of MraY using HP20ss hydrophobic beads; type: biochemical, E. coli
T1 construct: MraY activity measured in membranes prepared from wild-type E. coli; endogenous in cells
T1 sequence (P0A6W3 1-360): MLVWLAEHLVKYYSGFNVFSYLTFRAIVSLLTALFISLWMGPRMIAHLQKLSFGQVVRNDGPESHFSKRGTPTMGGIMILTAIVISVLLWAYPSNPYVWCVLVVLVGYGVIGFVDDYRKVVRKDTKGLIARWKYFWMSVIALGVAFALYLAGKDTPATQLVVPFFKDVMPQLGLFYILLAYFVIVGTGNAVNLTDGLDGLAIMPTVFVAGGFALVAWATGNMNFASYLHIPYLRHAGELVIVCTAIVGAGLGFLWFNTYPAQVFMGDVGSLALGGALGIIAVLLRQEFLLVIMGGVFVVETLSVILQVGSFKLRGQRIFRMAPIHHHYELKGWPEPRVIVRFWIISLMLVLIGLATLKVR
Description: The reaction catalyzed transfer and use of the radiotracer are shown in FIG. 2, Panel A. The general course of manipulations are diagramed in FIG. 2, Panel D and described in the text. The reaction mixture for the MraY assay included 100 mM Tris, pH 7.5, 30 mM MgCl2, 0.15% Triton X-100, 100 μg/ml Phosphatidyl Glycerol, 40 μM decaprenol phosphate, 14 μM UDP-MurNAC-[^14C]pentapeptide (prepared as described above) and typically 0.5 mg/mL of E. coli cell membranes in a final volume of 50 μL. The phosphatidyl glycerol and decaprenol phosphate, which are supplied in organic solvent, were dried in the reaction tube before the addition of the other components.
The HP20ss resin used to isolate the Lipid I product from the above reaction mixture was equilibrated before use. Briefly, the dry resin was mixed thoroughly with excess methanol in a beaker and allowed to settle for 45 min. […]
For assays whereby the reaction is analyzed at various times, a larger reaction volume was prepared (50 μL is typically appropriate for each time point). […] The filterplate was then quantitated by liquid scintillation spectrometry with a TOPCOUNT (PERKIN ELMER LIFE SCIENCES, Downers Grove, Ill.) using 200 μL of scintillation cocktail (MICROSCINT 40, PERKIN ELMER LIFE SCIENCES, Downers Grove, Ill.) per well.

In the case of ramoplanin, the IC50 (MraY/MurG couple) is reported as “approximately 17 μg/mL” and the IC50 (MraY/MurG couple; listed as ramoplainin) is reported as 17 µg/mL.
In the case of tunicamycin, the IC50 (MraY; membranes from wild-type E. coli, bead format (text to FIG. 5, Panel A)) is reported as “approximately 1 μg/mL” and the IC50 (MraY; titration of the MraY assay, 0.5 mg/mL protein at 10 min time (FIG. 5, Panel A), read-out: IC50) is reported as 1100 nM.
